≈ marks a conversion by molar mass, not a printed value. Like-named read-outs stand apart in the source and are kept apart here.
Key:
[1] = tested on: Helicobacter pylori; test: Inhibitory effect on proliferation of Helicobacter pylori (MIC, Brucella agar); assay type: cell-based
[2] = biological target: H+/K+-ATPase (Rattus norvegicus, UniProt P09626); test: H+/K+-ATPase activity inhibition test; settings: for IC50 for H+/K+-ATPase: stomach enzyme, pre-incubated 37° C. 30 minutes, pH 7.4
[3] = H. pylori strain ATCC 43504, 37° C., 3 days
[4] = H. pylori strain Clinical 4, 37° C., 3 days
[5] = H. pylori strain Clinical 82516, 37° C., 3 days
[6] = H. pylori strain Clinical 82548, 37° C., 3 days
[7] = H. pylori strain NCTC 11637, 37° C., 3 days
[8] = H. pylori strain NCTC 11638, 37° C., 3 days

Sequence of H+/K+-ATPase (P09626 whole entry): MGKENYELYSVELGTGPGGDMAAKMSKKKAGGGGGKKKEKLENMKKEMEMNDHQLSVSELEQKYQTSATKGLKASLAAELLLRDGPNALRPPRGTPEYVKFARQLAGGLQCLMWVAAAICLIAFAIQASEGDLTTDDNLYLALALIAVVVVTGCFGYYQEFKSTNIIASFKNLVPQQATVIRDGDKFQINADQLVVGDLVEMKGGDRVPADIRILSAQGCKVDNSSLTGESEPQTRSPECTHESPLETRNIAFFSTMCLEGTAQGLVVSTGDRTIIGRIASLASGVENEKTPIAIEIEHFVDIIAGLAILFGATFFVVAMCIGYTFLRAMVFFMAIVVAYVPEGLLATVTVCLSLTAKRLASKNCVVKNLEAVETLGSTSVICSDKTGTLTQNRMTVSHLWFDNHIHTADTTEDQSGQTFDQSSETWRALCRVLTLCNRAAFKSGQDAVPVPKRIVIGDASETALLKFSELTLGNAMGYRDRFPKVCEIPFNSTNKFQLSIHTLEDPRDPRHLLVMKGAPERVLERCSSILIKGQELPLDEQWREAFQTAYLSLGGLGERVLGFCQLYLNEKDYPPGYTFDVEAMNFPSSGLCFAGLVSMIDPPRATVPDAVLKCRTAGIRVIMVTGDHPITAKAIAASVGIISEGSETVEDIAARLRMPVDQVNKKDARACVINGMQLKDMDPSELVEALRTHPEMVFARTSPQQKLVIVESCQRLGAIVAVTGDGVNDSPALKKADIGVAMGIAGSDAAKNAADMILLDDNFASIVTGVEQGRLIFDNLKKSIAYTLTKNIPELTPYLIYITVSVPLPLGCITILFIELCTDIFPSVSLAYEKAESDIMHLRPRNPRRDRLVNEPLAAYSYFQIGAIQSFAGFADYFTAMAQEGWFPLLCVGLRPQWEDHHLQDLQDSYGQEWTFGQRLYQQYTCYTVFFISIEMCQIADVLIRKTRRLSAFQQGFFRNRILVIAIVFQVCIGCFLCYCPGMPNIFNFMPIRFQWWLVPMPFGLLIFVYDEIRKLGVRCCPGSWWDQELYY
Sequence of H+/K+-ATPase (P18598 whole entry partner): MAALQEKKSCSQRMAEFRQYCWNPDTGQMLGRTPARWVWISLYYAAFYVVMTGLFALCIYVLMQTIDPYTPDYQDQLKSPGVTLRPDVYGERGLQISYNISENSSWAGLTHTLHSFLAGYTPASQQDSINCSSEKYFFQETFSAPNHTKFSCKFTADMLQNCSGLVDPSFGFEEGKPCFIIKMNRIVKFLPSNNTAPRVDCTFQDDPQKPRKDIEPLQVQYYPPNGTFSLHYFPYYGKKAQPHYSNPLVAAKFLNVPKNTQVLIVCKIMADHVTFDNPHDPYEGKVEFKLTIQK

SMILES	MIC ATCC 43504 [1, 3]	MIC Clinical 4 [1, 4]	MIC Clinical 82516 [1, 5]	MIC Clinical 82548 [1, 6]	MIC NCTC 11637 [1, 7]	MIC NCTC 11638 [1, 8]	IC50 for H+/K+-ATPase [2]	other results
CC(C)=CCC[C@](C)(O[C@@H]1O[C@H](CO[C@@H]2O[C@@H](CO)[C@H](O)[C@H]2O)[C@@H](O)[C@H](O)[C@H]1O)[C@H]1CC[C@]2(C)[C@@H]1[C@H](O)C[C@@H]1[C@@]3(C)CC[C@H](O[C@@H]4O[C@H](CO)[C@@H](O)[C@H](O)[C@H]4O[C@@H]4O[C@H](CO)[C@@H](O)[C@H](O)[C@H]4O)C(C)(C)[C@@H]3CC[C@]12C [Ginsenoside Rc]	–	–	–	–	–	–	–	MIC ([1]; Helicobacter pylori, 72 h, H. pylori strain Clinical 4, 37° C., 3 days, read-out: MIC Clinical 4): > 100 µg/mL; MIC ([1]; Helicobacter pylori, 72 h, H. pylori strain Clinical 82516, 37° C., 3 days, read-out: MIC Clinical 82516): > 100 µg/mL; MIC ([1]; Helicobacter pylori, 72 h, H. pylori strain Clinical 82548, 37° C., 3 days, read-out: MIC Clinical 82548): > 100 µg/mL; MIC ([1]; Helicobacter pylori, ATCC43504, 72 h, H. pylori strain ATCC 43504, 37° C., 3 days, read-out: MIC ATCC 43504): > 100 µg/mL; MIC ([1]; Helicobacter pylori, NCTC11637, 72 h, H. pylori strain NCTC 11637, 37° C., 3 days, read-out: MIC NCTC 11637): > 100 µg/mL; MIC ([1]; Helicobacter pylori, NCTC11638, 72 h, H. pylori strain NCTC 11638, 37° C., 3 days, read-out: MIC NCTC 11638): > 100 µg/mL; IC50 [2]: > 927 µM
CC(C)=CCC[C@](C)(O)[C@H]1CC[C@]2(C)[C@@H]1[C@H](O)C[C@@H]1[C@@]3(C)CC[C@H](O[C@@H]4O[C@H](CO)[C@@H](O)[C@H](O)[C@H]4O)C(C)(C)[C@@H]3CC[C@]12C [20(S)-ginsenoside Rh2]	100 µg/mL (≈ 161 µM)	100 µg/mL (≈ 161 µM)	100 µg/mL (≈ 161 µM)	100 µg/mL (≈ 161 µM)	100 µg/mL (≈ 161 µM)	100 µg/mL (≈ 161 µM)	500 µg/mL	–
COc1ccc2[nH]c([S+]([O-])Cc3ncc(C)c(OC)c3C)nc2c1 (centres unmarked) [Omeprazole, reference compound]	–	–	–	–	–	–	–	IC50 [2]: 57.9 µM
CC(C)=CCC[C@](C)(O[C@@H]1O[C@H](CO[C@@H]2OC[C@H](O)[C@H](O)[C@H]2O)[C@@H](O)[C@H](O)[C@H]1O)[C@H]1CC[C@]2(C)[C@@H]1[C@H](O)C[C@@H]1[C@@]3(C)CC[C@H](O[C@@H]4O[C@H](CO)[C@@H](O)[C@H](O)[C@H]4O[C@@H]4O[C@H](CO)[C@@H](O)[C@H](O)[C@H]4O)C(C)(C)[C@@H]3CC[C@]12C [Ginsenoside Rb2, reference compound]	>100 µg/mL	>100 µg/mL	>100 µg/mL	>100 µg/mL	>100 µg/mL	>100 µg/mL	>1000 µg/mL	–
CC(C)=CCC[C@](C)(O)[C@H]1CC[C@]2(C)[C@@H]1[C@H](O)C[C@@H]1[C@@]3(C)CC[C@H](O)C(C)(C)[C@@H]3[C@@H](O[C@@H]3O[C@H](CO)[C@@H](O)[C@H](O)[C@H]3O)C[C@]12C [Ginsenoside Rh1]	>100 µg/mL	>100 µg/mL	>100 µg/mL	>100 µg/mL	>100 µg/mL	>100 µg/mL	>1000 µg/mL	–
CC(C)=CCC[C@@](C)(O)[C@H]1CC[C@]2(C)[C@@H]1[C@H](O)C[C@@H]1[C@@]3(C)CC[C@H](O)C(C)(C)[C@@H]3CC[C@]12C [20(R)-protopanaxadiol]	50 µg/mL (≈ 109 µM)	50 µg/mL (≈ 109 µM)	50 µg/mL (≈ 109 µM)	50 µg/mL (≈ 109 µM)	50 µg/mL (≈ 109 µM)	50 µg/mL (≈ 109 µM)	–	–
CC(C)=CCC[C@](C)(O)[C@H]1CC[C@]2(C)[C@@H]1[C@H](O)C[C@@H]1[C@@]3(C)CC[C@H](O[C@@H]4O[C@H](CO)[C@@H](O)[C@H](O)[C@H]4O[C@@H]4O[C@H](CO)[C@@H](O)[C@H](O)[C@H]4O)C(C)(C)[C@@H]3CC[C@]12C [20(S)-ginsenoside Rg3]	200 µg/mL (≈ 255 µM)	200 µg/mL (≈ 255 µM)	200 µg/mL (≈ 255 µM)	200 µg/mL (≈ 255 µM)	200 µg/mL (≈ 255 µM)	200 µg/mL (≈ 255 µM)	600 µg/mL	–
CC(C)=CCC[C@](C)(O)[C@H]1CC[C@]2(C)[C@@H]1[C@H](O)C[C@@H]1[C@@]3(C)CC[C@H](O[C@@H]4O[C@H](CO)[C@@H](O)[C@H](O)[C@H]4O[C@@H]4O[C@H](CO)[C@@H](O)[C@H](O)[C@H]4O)C(C)(C)[C@@H]3CC[C@]12C [20(R)-ginsenoside Rg3]	200 µg/mL (≈ 255 µM)	200 µg/mL (≈ 255 µM)	200 µg/mL (≈ 255 µM)	200 µg/mL (≈ 255 µM)	200 µg/mL (≈ 255 µM)	200 µg/mL (≈ 255 µM)	700 µg/mL	–
CC(C)=CCC[C@@](C)(O)[C@H]1CC[C@]2(C)[C@@H]1[C@H](O)C[C@@H]1[C@@]3(C)CC[C@H](O)C(C)(C)[C@@H]3CC[C@]12C [protopanaxadiol]	–	–	–	–	–	–	–	MIC ([1]; strain not specified): 50 µg/mL (≈ 109 µM)
CC(C)=CCC[C@@](C)(O)[C@H]1CC[C@]2(C)[C@@H]1[C@H](O)C[C@@H]1[C@@]3(C)CC[C@H](O[C@@H]4O[C@H](CO)[C@@H](O)[C@H](O)[C@H]4O)C(C)(C)[C@@H]3CC[C@]12C [20(R)-ginsenoside Rh2]	100 µg/mL (≈ 161 µM)	100 µg/mL (≈ 161 µM)	100 µg/mL (≈ 161 µM)	100 µg/mL (≈ 161 µM)	100 µg/mL (≈ 161 µM)	100 µg/mL (≈ 161 µM)	500 µg/mL	–
CC(C)=CCC[C@](C)(O[C@@H]1O[C@H](CO)[C@@H](O)[C@H](O)[C@H]1O)[C@H]1CC[C@]2(C)[C@@H]1[C@H](O)C[C@@H]1[C@@]3(C)CC[C@H](O)C(C)(C)[C@@H]3CC[C@]12C [Compound K, reference compound]	>100 µg/mL	>100 µg/mL	>100 µg/mL	>100 µg/mL	>100 µg/mL	>100 µg/mL	>1000 µg/mL	–
CC1(C)CCC[C@](C)([C@H]2CC[C@]3(C)[C@@H]2[C@H](O)C[C@@H]2[C@@]4(C)CC[C@H](O)C(C)(C)[C@@H]4[C@@H](O)C[C@]23C)O1 [panaxatriol]	–	–	–	–	–	–	–	MIC ([1]; Helicobacter pylori, strain not specified, read-out: MIC): 50 µg/mL (≈ 105 µM)
CC(C)=CCC[C@](C)(O[C@@H]1O[C@H](CO[C@@H]2O[C@H](CO)[C@@H](O)[C@H](O)[C@H]2O)[C@@H](O)[C@H](O)[C@H]1O)[C@H]1CC[C@]2(C)[C@@H]1[C@H](O)C[C@@H]1[C@@]3(C)CC[C@H](O[C@@H]4O[C@H](CO)[C@@H](O)[C@H](O)[C@H]4O[C@@H]4O[C@H](CO)[C@@H](O)[C@H](O)[C@H]4O)C(C)(C)[C@@H]3CC[C@]12C [Ginsenoside Rb1]	>100 µg/mL	>100 µg/mL	>100 µg/mL	>100 µg/mL	>100 µg/mL	>100 µg/mL	>1000 µg/mL	–
CC(C)=CCC[C@](C)(O)[C@H]1CC[C@]2(C)[C@@H]1[C@H](O)C[C@@H]1[C@@]3(C)CC[C@H](O)C(C)(C)[C@@H]3[C@@H](O)C[C@]12C [Protopanaxatriol]	50 µg/mL (≈ 105 µM)	50 µg/mL (≈ 105 µM)	50 µg/mL (≈ 105 µM)	50 µg/mL (≈ 105 µM)	50 µg/mL (≈ 105 µM)	50 µg/mL (≈ 105 µM)	–	–
CC(C)=CCC[C@](C)(O)[C@H]1CC[C@]2(C)[C@@H]1[C@H](O)C[C@@H]1[C@@]3(C)CC[C@H](O)C(C)(C)[C@@H]3CC[C@]12C [20(S)-protopanaxadiol]	50 µg/mL (≈ 109 µM)	50 µg/mL (≈ 109 µM)	50 µg/mL (≈ 109 µM)	50 µg/mL (≈ 109 µM)	50 µg/mL (≈ 109 µM)	50 µg/mL (≈ 109 µM)	>1000 µg/mL	inhibiting activity of proliferation of Helicobacter strain ([1]; result in words): potent inhibiting activity
